In ChEMBL document CHEMBL1141914:
Blank lines part the entries; values can stand above or below the compound they belong to.

Biological target: T1, Prostaglandin G/H synthase 1 (Ovis aries) (UniProt P05979)
T1 sequence (whole entry): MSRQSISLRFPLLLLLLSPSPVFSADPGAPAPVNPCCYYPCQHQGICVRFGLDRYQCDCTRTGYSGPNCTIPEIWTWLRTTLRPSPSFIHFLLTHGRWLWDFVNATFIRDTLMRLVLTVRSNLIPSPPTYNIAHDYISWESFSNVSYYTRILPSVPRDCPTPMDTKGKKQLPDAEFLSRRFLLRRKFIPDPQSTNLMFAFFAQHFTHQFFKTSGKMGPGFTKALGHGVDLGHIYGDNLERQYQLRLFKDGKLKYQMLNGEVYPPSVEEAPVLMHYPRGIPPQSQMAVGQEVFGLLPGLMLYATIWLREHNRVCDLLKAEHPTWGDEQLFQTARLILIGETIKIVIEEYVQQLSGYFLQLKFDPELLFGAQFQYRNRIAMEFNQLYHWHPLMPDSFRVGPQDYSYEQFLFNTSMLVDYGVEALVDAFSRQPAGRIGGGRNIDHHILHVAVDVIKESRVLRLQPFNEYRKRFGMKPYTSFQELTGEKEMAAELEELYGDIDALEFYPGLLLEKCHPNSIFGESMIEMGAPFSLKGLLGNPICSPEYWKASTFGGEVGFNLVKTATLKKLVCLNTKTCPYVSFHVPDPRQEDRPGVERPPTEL
Experiment: Percent inhibition against Prostaglandin G/H synthase 1 from ram seminal vesicles at 100 uM

inhibition: 47.4%
SMILES: COc1cc(/C=C/c2cc(/C=C/c3ccc(O)cc3)on2)ccc1O

inhibition: 87%
SMILES: COc1cc(/C=C/c2cc(/C=C/c3ccc(O)c(OC)c3)[nH]n2)ccc1O

inhibition: 73.9%
SMILES: COc1cc(/C=C/c2cc(/C=C/c3ccc(O)cc3)[nH]n2)ccc1O

The next lines start with the compound.

SMILES: Oc1ccc(/C=C/c2cc(/C=C/c3ccc(O)cc3)[nH]n2)cc1
inhibition: 44.4%

SMILES: COc1cc(/C=C/C(O)=C/C(=O)/C=C/c2ccc(O)cc2)ccc1O
inhibition: 67.8%

SMILES: COc1cc(/C=C/c2cc(/C=C/c3ccc(O)c(OC)c3)on2)ccc1O
inhibition: 80.8%

SMILES: O=C(/C=C/c1ccc(O)cc1)CC(=O)/C=C/c1ccc(O)cc1
inhibition: 41.7%

SMILES: COc1cc(/C=C/C(=O)CC(=O)/C=C/c2ccc(O)c(OC)c2)ccc1O
inhibition: 80.5%
